The source of these data is ChEMBL document CHEMBL5724914, “Linking interpersonal differences in gut microbiota composition and drug biotransformation activity” (2024).

The structures appear in SMILES notation.

The conditions of series [1]: human gut metagenome, 24 h, 2 µM.
The conditions of series [2]: human gut metagenome, 24 h, 2 µM. The source holds these as a separate data set.
A short description of series [3]: The drug is tested on Z-019 corresponding to rat gut metagenome with ENA study accession number: PRJEB37062 and ENA sample accession number: ERS12561818 for biotransformation under anaerobic condition. The drug concentrations were measured over 9 timepoints collected between 0 and 24 hours of incubation by liquid-chromatography-coupled mass spectrometry (LC–MS). Particulars: 2 µM.

The nature of series [4]: The drug is tested on Z-020 corresponding to rabbit gut metagenome with ENA study accession number: PRJEB37062 and ENA sample accession number: ERS12561819 for biotransformation under anaerobic condition. The drug concentrations were measured over 9 timepoints collected between 0 and 24 hours of incubation by liquid-chromatography-coupled mass spectrometry (LC–MS). Particulars: 2 µM.

Series [5] in a line: The drug is tested on Z-002 corresponding to rabbit gut metagenome with ENA study accession number: PRJEB37062 and ENA sample accession number: ERS12561802 for biotransformation under anaerobic condition. The drug concentrations were measured over 9 timepoints collected between 0 and 24 hours of incubation by liquid-chromatography-coupled mass spectrometry (LC–MS). Particulars: 2 µM.

The conditions of series [6]: human gut metagenome, 24 h, 2 µM. This is another data set of the same source.
For series [7] the following is noted: human gut metagenome, 24 h, 2 µM. The source holds these as a separate data set.
The conditions of series [8]: human gut metagenome, 24 h, 2 µM. This is another data set of the same source.
For series [9] the following is noted: human gut metagenome, 24 h, 2 µM. This is another data set of the same source.
The nature of series [10]: The drug is tested on Z-021 corresponding to metagenome with ENA study accession number: PRJEB37062 and ENA sample accession number: ERS12561820 for biotransformation under anaerobic condition. The drug concentrations were measured over 9 timepoints collected between 0 and 24 hours of incubation by liquid-chromatography-coupled mass spectrometry (LC–MS). Conditions: 2 µM.

For series [11] the following is noted: human gut metagenome, 24 h, 2 µM. The source holds these as a separate data set.
For series [12] the following is noted: human gut metagenome, 24 h, 2 µM. This is another data set of the same source.
The conditions of series [13]: human gut metagenome, 24 h, 2 µM. This is another data set of the same source.
The conditions of series [14]: human gut metagenome, 24 h, 2 µM. The source holds these as a separate data set.
For series [15] the following is noted: human gut metagenome, 24 h, 2 µM. This is another data set of the same source.
A short description of series [16]: The drug is tested on Z-006 corresponding to mouse gut metagenome with ENA study accession number: PRJEB37062 and ENA sample accession number: ERS12561806 for biotransformation under anaerobic condition. The drug concentrations were measured over 9 timepoints collected between 0 and 24 hours of incubation by liquid-chromatography-coupled mass spectrometry (LC–MS). Conditions: 2 µM.

A short description of series [17]: The drug is tested on Z-012 corresponding to metagenome with ENA study accession number: PRJEB37062 and ENA sample accession number: ERS12561812 for biotransformation under anaerobic condition. The drug concentrations were measured over 9 timepoints collected between 0 and 24 hours of incubation by liquid-chromatography-coupled mass spectrometry (LC–MS). Conditions: 2 µM.

Series [18] in a line: The drug is tested on Z-023 corresponding to metagenome with ENA study accession number: PRJEB37062 and ENA sample accession number: ERS12561822 for biotransformation under anaerobic condition. The drug concentrations were measured over 9 timepoints collected between 0 and 24 hours of incubation by liquid-chromatography-coupled mass spectrometry (LC–MS). Conditions: 2 µM.
The conditions of series [19]: human gut metagenome, 24 h, 2 µM. This is another data set of the same source.
Series [20] is described as follows: The drug is tested on Z-005 corresponding to metagenome with ENA study accession number: PRJEB37062 and ENA sample accession number: ERS12561805 for biotransformation under anaerobic condition. The drug concentrations were measured over 9 timepoints collected between 0 and 24 hours of incubation by liquid-chromatography-coupled mass spectrometry (LC–MS). Conditions: 2 µM.
Note: call rule not given here.

With `CN(C)CCC=C1c2ccccc2C=Cc2ccccc21` [CYCLOBENZAPRINE], the “Bacterial Biotransformation” value in series [1] is listed as “Compound NOT metabolized”; in series [2], “Compound metabolized”; in series [3], “Compound NOT metabolized”; in series [4], “Compound NOT metabolized”; in series [5] it was “Compound metabolized”; in series [6], “Compound metabolized”. The “Bacterial Biotransformation” value in series [7], in [8], in series [9], in [10], in series [11] and in series [12] was “Compound metabolized” throughout. The “Bacterial Biotransformation” value is “Compound NOT metabolized” in [13]; “Compound metabolized” in series [14]; “Compound metabolized” in series [15]; “Compound NOT metabolized” in series [16]; “Compound NOT metabolized” in [17]; “Compound metabolized” in [18]. Besides, the “Bacterial Biotransformation” value in series [19] and in [20] was “Compound NOT metabolized” in each case.
Turning to `C[C@@H]1C[C@H]2[C@@H]3CCC4=CC(=O)C=C[C@]4(C)[C@@]3(F)[C@@H](O)C[C@]2(C)[C@@]1(O)C(=O)CO` [DEXAMETHASONE], the “Bacterial Biotransformation” value is given as “Compound NOT metabolized” in [1]; “Compound NOT metabolized” in series [2]; “Compound NOT metabolized” in series [3]; “Compound metabolized” in [4]; “Compound metabolized” in series [5]; “Compound NOT metabolized” in series [6]. The “Bacterial Biotransformation” value is recorded as “Compound NOT metabolized” in series [7]; “Compound NOT metabolized” in series [8]; “Compound NOT metabolized” in [9]; “Compound metabolized” in series [10]; “Compound NOT metabolized” in series [11]; “Compound NOT metabolized” in series [12]. For the same molecule, the “Bacterial Biotransformation” value in series [13] is reported as “Compound NOT metabolized”; in series [14], “Compound NOT metabolized”; in series [15], “Compound NOT metabolized”; in series [16], “Compound NOT metabolized”; in [17], “Compound metabolized”; in series [18], “Compound metabolized”. Moreover, the “Bacterial Biotransformation” value in series [19] is “Compound NOT metabolized”; in series [20], “Compound metabolized”.
Consider `O=C(Nc1ccccc1)OCC(CN1CCCCC1)OC(=O)Nc1ccccc1` (stereo not given) [DIPERODON], for which the “Bacterial Biotransformation” value in series [1] is given as “Compound NOT metabolized”; in [2], “Compound metabolized”; in [3], “Compound NOT metabolized”; in [4], “Compound NOT metabolized”; in [5] it was “Compound NOT metabolized”; in series [6] it was “Compound NOT metabolized”. Besides, the “Bacterial Biotransformation” value in [7] is “Compound NOT metabolized”; in [8], “Compound metabolized”; in series [9], “Compound NOT metabolized”; in series [10], “Compound NOT metabolized”; in series [11], “Compound metabolized”; in [12] it was “Compound metabolized”. Moreover, the “Bacterial Biotransformation” value in series [13] is reported as “Compound metabolized”; in [14] it was “Compound NOT metabolized”; in series [15], “Compound NOT metabolized”; in series [16], “Compound NOT metabolized”; in series [17], “Compound NOT metabolized”; in series [18] it was “Compound metabolized”. The “Bacterial Biotransformation” value in series [19] is “Compound metabolized”; in [20] it was “Compound NOT metabolized”.
